The structures appear in SMILES notation. Counter-ions that a name gives are not always drawn. Like-named read-outs stand apart in the source and are kept apart here.

One assay addresses T1, JAK2 (a.a. 828-1132) (Homo sapiens, UniProt O60674).
T1 construct: JAK2 (a.a. 828-1132); His tag (N)
In words: In vitro JAK kinase assay (HTRF, phosphorylation of biotinylated peptide), JAK2. The class given is biochemical. The procedure:
Compounds herein were tested for inhibitory activity of JAK targets according to the following in vitro assay described in Park et al., Analytical Biochemistry 1999, 269, 94-104. The catalytic domains of human JAK1 (a.a. 837-1142) and JAK2 (a.a. 828-1132) with an N-terminal His tag were expressed using baculovirus in insect cells and purified. The catalytic activity of JAK1 and JAK2 was assayed by measuring the phosphorylation of a biotinylated peptide. The phosphorylated peptide was detected by homogenous time resolved fluorescence (HTRF). […] Reactions were carried out at room temperature for 1 hour and then stopped with 20 μL 45 mM EDTA, 300 nM SA-APC, 6 nM Eu-Py20 in assay buffer (Perkin Elmer, Boston, Mass.). Binding to the Europium labeled antibody took place for 40 minutes and HTRF signal was measured on a Fusion plate reader (Perkin Elmer, Boston, Mass.). See Tables A-F for data related to compounds of the Examples (at 1 mM). Data is indicated as ranges, wherein “+” is less than 10 nM; “++” is 10 nM to 25 nM; “+++” is greater than 25 nM to 100 nM; and “++++” is greater than 100 nM. Greater than 25 nM to 100 nM specifies a range with a lower endpoint “at greater than 25 nM” and an upper endpoint at 100 nM.
On the technique in general: TR-FRET usually uses a lanthanide donor and a delayed reading to cut background.

Assay [1] addresses human JAK1 (a.a. 837-1142) (Homo sapiens, UniProt P23458). In words: In vitro JAK kinase assay (HTRF, phosphorylation of biotinylated peptide), JAK1. It counts as biochemical. The procedure:
Compounds herein were tested for inhibitory activity of JAK targets according to the following in vitro assay described in Park et al., Analytical Biochemistry 1999, 269, 94-104. The catalytic domains of human JAK1 (a.a. 837-1142) and JAK2 (a.a. 828-1132) with an N-terminal His tag were expressed using baculovirus in insect cells and purified. The catalytic activity of JAK1 and JAK2 was assayed by measuring the phosphorylation of a biotinylated peptide. The phosphorylated peptide was detected by homogenous time resolved fluorescence (HTRF). […] Reactions were carried out at room temperature for 1 hour and then stopped with 20 μL 45 mM EDTA, 300 nM SA-APC, 6 nM Eu-Py20 in assay buffer (Perkin Elmer, Boston, Mass.). Binding to the Europium labeled antibody took place for 40 minutes and HTRF signal was measured on a Fusion plate reader (Perkin Elmer, Boston, Mass.). […] Data is indicated as ranges, wherein “+” is less than 10 nM; “++” is 10 nM to 25 nM; “+++” is greater than 25 nM to 100 nM; and “++++” is greater than 100 nM. Greater than 25 nM to 100 nM specifies a range with a lower endpoint “at greater than 25 nM” and an upper endpoint at 100 nM.

The mark [2] stands for this setting: read-out: JAK2 IC50 (nM) at 1 mM ATP, Table F.
The mark [3] stands for this setting: Table A, 1 mM ATP, read-out: JAK2 IC50.
[4] abbreviates: Table A, 1 mM ATP, read-out: JAK1 IC50.
The mark [5] stands for this setting: Table B, 1 mM ATP, read-out: JAK2 IC50.
Setting [6] is: Table B, 1 mM ATP, read-out: JAK1 IC50.

human JAK1 (a.a. 837-1142), sequence (P23458 849-1154): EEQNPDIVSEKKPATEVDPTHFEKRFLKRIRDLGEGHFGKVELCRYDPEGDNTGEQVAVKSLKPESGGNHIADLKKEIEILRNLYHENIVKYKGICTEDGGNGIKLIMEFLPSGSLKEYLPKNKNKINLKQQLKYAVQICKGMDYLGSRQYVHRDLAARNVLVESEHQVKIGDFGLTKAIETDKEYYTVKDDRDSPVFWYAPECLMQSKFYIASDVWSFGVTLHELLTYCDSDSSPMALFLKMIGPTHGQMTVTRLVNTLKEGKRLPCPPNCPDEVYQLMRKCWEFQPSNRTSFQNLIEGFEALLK
T1 sequence (O60674 828-1132): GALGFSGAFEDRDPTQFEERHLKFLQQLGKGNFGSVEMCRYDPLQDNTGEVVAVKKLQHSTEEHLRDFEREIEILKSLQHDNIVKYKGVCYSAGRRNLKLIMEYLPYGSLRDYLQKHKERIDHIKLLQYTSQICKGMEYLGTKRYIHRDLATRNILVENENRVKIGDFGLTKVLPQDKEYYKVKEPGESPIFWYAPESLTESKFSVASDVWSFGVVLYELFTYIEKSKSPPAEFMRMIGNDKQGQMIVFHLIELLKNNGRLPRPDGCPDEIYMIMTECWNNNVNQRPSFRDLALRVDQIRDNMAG

`C[C@H]1CCCN1Cc1cc(F)cc(OC2CCN(C3CC(CC#N)(n4cc(-c5ncnc6[nH]ccc56)cn4)C3)CC2)c1` (single isomer, unassigned; isomer 2) [Example 41, isomer 2]: the IC50 at JAK2 (a.a. 828-1132) (Table E, 1 mM ATP, listed as 41, isomer 2, read-out: JAK2 IC50 (nM) +) is below 10 nM; in assay [1] (read-out: JAK1 IC50 (nM) at 1 mM, Table E, 1 mM ATP), below 10 nM.

With `N#CCC1(n2cc(-c3ncnc4[nH]ccc34)cn2)CC(N2CCC(Oc3cc(CCO)nc(C(F)(F)F)n3)CC2)C1` (single isomer, unassigned; peak 1) [Example 164, peak 1, {trans-3-(4-{[6-(2-hydroxyethyl)-2-(trifluoromethyl)pyrimidin-4-yl]oxy}piperidin-1-yl)-1-[4-(7H-pyrrolo[2,3-d]pyrimidin-4-yl)-1H-pyrazol-1-yl]cyclobutyl}acetonitrile], the IC50 at JAK2 (a.a. 828-1132) (setting [2]) was above 100 nM; in assay [1] (read-out: JAK1 IC50 (nM) at 1 mM ATP, Table F, listed as 164, peak 1), 10 to 25 nM.

Take `N#CCC1(n2cc(-c3ncnc4[nH]ccc34)cn2)CC(N2CCC(Oc3cc(CCO)nc(C(F)(F)F)n3)CC2)C1` (single isomer, unassigned; peak 2) [Example 164, peak 2, {cis-3-(4-{[6-(2-hydroxyethyl)-2-(trifluoromethyl)pyrimidin-4-yl]oxy}piperidin-1-yl)-1-[4-(7H-pyrrolo[2,3-d]pyrimidin-4-yl)-1H-pyrazol-1-yl]cyclobutyl}acetonitrile]: the IC50 is above 100 nM at JAK2 (a.a. 828-1132) (setting [2]) and 25 to 100 nM in assay [1] (read-out: JAK1 IC50 (nM) at 1 mM ATP, Table F, listed as 164, peak 2).

Regarding `N#CC[C@]1(n2cc(-c3ncnc4[nH]ccc34)cn2)C[C@@H](N2CCN(Cc3cc(F)cc(C#N)c3)CC2)C1` [Example 1a, 3-[(4-{cis-3-(cyanomethyl)-3-[4-(7H-pyrrolo[2,3-d]pyrimidin-4-yl)-1H-pyrazol-1-yl]cyclobutyl}piperazin-1-yl)methyl]-5-fluorobenzonitrile], the IC50 on JAK2 (a.a. 828-1132) (setting [3]) is above 100 nM; in assay [1] (setting [4]) it was below 10 nM.

Take `N#CC[C@]1(n2cc(-c3ncnc4[nH]ccc34)cn2)C[C@H](N2CCN(Cc3cc(F)cc(C#N)c3)CC2)C1` [Example 1b, 3-[(4-{trans-3-(cyanomethyl)-3-[4-(7H-pyrrolo[2,3-d]pyrimidin-4-yl)-1H-pyrazol-1-yl]cyclobutyl}piperazin-1-yl)methyl]-5-fluorobenzonitrile]: the figures for the IC50 (at JAK2 (a.a. 828-1132) (setting [5]); in assay [1] (setting [6])) were 25 to 100 nM and below 10 nM, respectively.

Regarding `CN(C)c1ccc(CN2CCN([C@H]3C[C@@](CC#N)(n4cc(-c5ncnc6[nH]ccc56)cn4)C3)CC2)c(F)c1C#N` [Example 2a, 3-[(4-{cis-3-(cyanomethyl)-3-[4-(7H-pyrrolo[2,3-d]pyrimidin-4-yl)-1H-pyrazol-1-yl]cyclobutyl}piperazin-1-yl)methyl]-6-(dimethylamino)-2-fluorobenzonitrile], the IC50 on JAK2 (a.a. 828-1132) (setting [3]) was 25 to 100 nM; in assay [1] (setting [4]), below 10 nM.

Take `CN(C)c1ccc(CN2CCN([C@H]3C[C@](CC#N)(n4cc(-c5ncnc6[nH]ccc56)cn4)C3)CC2)c(F)c1C#N` [Example 2b, 3-[(4-{trans-3-(cyanomethyl)-3-[4-(7H-pyrrolo[2,3-d]pyrimidin-4-yl)-1H-pyrazol-1-yl]cyclobutyl}piperazin-1-yl)methyl]-6-(dimethylamino)-2-fluorobenzonitrile]: the 50% inhibitory concentration (IC50) on JAK2 (a.a. 828-1132) (setting [5]) is 25 to 100 nM; in assay [1] (setting [6]) it was below 10 nM.

`N#CC[C@]1(n2cc(-c3ncnc4[nH]ccc34)cn2)C[C@@H](N2CCN(C(=O)Nc3ccc(F)cc3C(F)(F)F)CC2)C1` [Example 3a, 4-{cis-3-(cyanomethyl)-3-[4-(7H-pyrrolo[2,3-d]pyrimidin-4-yl)-1H-pyrazol-1-yl]cyclobutyl}-N-[4-fluoro-2-(trifluoromethyl)phenyl]piperazine-1-carboxamide 2.4×(trifluoroacetate) Salt]: the IC50 at JAK2 (a.a. 828-1132) (setting [3]) was above 100 nM; in assay [1] (setting [4]) it was 25 to 100 nM.

As for `N#CC[C@]1(n2cc(-c3ncnc4[nH]ccc34)cn2)C[C@H](N2CCN(C(=O)Nc3ccc(F)cc3C(F)(F)F)CC2)C1` [Example 3b, 4-{3-(cyanomethyl)-3-[4-(7H-pyrrolo[2,3-d]pyrimidin-4-yl)-1H-pyrazol-1-yl]cyclobutyl}-N-[4-fluoro-2-(trifluoromethyl)phenyl]piperazine-1-carboxamide 2.3×(trifluoroacetate) Salt], the IC50 on JAK2 (a.a. 828-1132) (setting [5]) was above 100 nM; in assay [1] (setting [6]) it was 10 to 25 nM.

For the compound `C[C@H]1CCCN1C(=O)N1CCN([C@H]2C[C@@](CC#N)(n3cc(-c4ncnc5[nH]ccc45)cn3)C2)CC1` [Example 4a, {cis-3-(4-{[(2S)-2-methylpyrrolidin-1-yl]carbonyl}piperazin-1-yl)-1-[4-(7H-pyrrolo[2,3-d]pyrimidin-4-yl)-1H-pyrazol-1-yl]cyclobutyl}acetonitrile], the IC50 at JAK2 (a.a. 828-1132) (setting [3]) is above 100 nM; in assay [1] (setting [4]), 25 to 100 nM.

As for `C[C@H]1CCCN1C(=O)N1CCN([C@H]2C[C@](CC#N)(n3cc(-c4ncnc5[nH]ccc45)cn3)C2)CC1` [Example 4b, {trans-3-(4-{[(2S)-2-methylpyrrolidin-1-yl]carbonyl}piperazin-1-yl)-1-[4-(7H-pyrrolo[2,3-d]pyrimidin-4-yl)-1H-pyrazol-1-yl]cyclobutyl}acetonitrile], the IC50 was above 100 nM at JAK2 (a.a. 828-1132) (setting [5]) and below 10 nM in assay [1] (setting [6]).

With `CC[C@H]1CCCN1C(=O)N1CCN([C@H]2C[C@](CC#N)(n3cc(-c4ncnc5[nH]ccc45)cn3)C2)CC1` [Example 5, {trans-3-(4-{[(2S)-2-ethylpyrrolidin-1-yl]carbonyl}piperazin-1-yl)-1-[4-(7H-pyrrolo[2,3-d]pyrimidin-4-yl)-1H-pyrazol-1-yl]cyclobutyl}acetonitrile], the values for the IC50 (on JAK2 (a.a. 828-1132) (setting [5]); in assay [1] (setting [6])) were above 100 nM and below 10 nM, respectively.

Take `N#CC[C@]1(n2cc(-c3ncnc4[nH]ccc34)cn2)C[C@@H](N2CCN(C(=O)c3ccnc(C(F)(F)F)c3F)CC2)C1` [Example 6a, {cis-3-{4-[3-fluoro-2-(trifluoromethyl)isonicotinoyl]piperazin-1-yl}-1-[4-(7H-pyrrolo[2,3-d]pyrimidin-4-yl)-1H-pyrazol-1-yl]cyclobutyl}acetonitrile]: the results for the IC50 (at JAK2 (a.a. 828-1132) (setting [3]); in assay [1] (setting [4])) were above 100 nM and 10 to 25 nM, respectively.

For the compound `N#CC[C@]1(n2cc(-c3ncnc4[nH]ccc34)cn2)C[C@H](N2CCN(C(=O)c3ccnc(C(F)(F)F)c3F)CC2)C1` [Example 6b, {trans-3-{4-[3-fluoro-2-(trifluoromethyl)isonicotinoyl]piperazin-1-yl}-1-[4-(7H-pyrrolo[2,3-d]pyrimidin-4-yl)-1H-pyrazol-1-yl]cyclobutyl}acetonitrile], the IC50 on JAK2 (a.a. 828-1132) (setting [5]) was 25 to 100 nM; in assay [1] (setting [6]) it was below 10 nM.

For the compound `N#CC[C@]1(n2cc(-c3ncnc4[nH]ccc34)cn2)C[C@@H](N2CCN(C(=O)c3ccnc(C(F)(F)F)n3)CC2)C1` [Example 7a, [cis-1-[4-(7H-pyrrolo[2,3-d]pyrimidin-4-yl)-1H-pyrazol-1-yl]-3-(4-{[2-(trifluoromethyl)pyrimidin-4-yl]carbonyl}piperazin-1-yl)cyclobutyl]acetonitrile], the half-maximal inhibitory concentration (IC50) on JAK2 (a.a. 828-1132) (setting [3]) was above 100 nM; in assay [1] (setting [4]), 10 to 25 nM.

For the compound `N#CC[C@]1(n2cc(-c3ncnc4[nH]ccc34)cn2)C[C@H](N2CCN(C(=O)c3ccnc(C(F)(F)F)n3)CC2)C1` [Example 7b, [trans-1-[4-(7H-pyrrolo[2,3-d]pyrimidin-4-yl)-1H-pyrazol-1-yl]-3-(4-{[2-(trifluoromethyl)pyrimidin-4-yl]carbonyl}piperazin-1-yl)cyclobutyl]acetonitrile], the IC50 is 25 to 100 nM on JAK2 (a.a. 828-1132) (setting [5]) and below 10 nM in assay [1] (setting [6]).

As for `N#CC[C@]1(n2cc(-c3ncnc4[nH]ccc34)cn2)C[C@@H](N2CCN(C(=O)c3cc(F)cc(F)c3)CC2)C1` [Example 8a, {cis-3-[4-(3,5-difluorobenzoyl)piperazin-1-yl]-1-[4-(7H-pyrrolo[2,3-d]pyrimidin-4-yl)-1H-pyrazol-1-yl]cyclobutyl}acetonitrile], the IC50 at JAK2 (a.a. 828-1132) (setting [3]) is 25 to 100 nM; in assay [1] (setting [4]), below 10 nM.

What is called IC50 is the concentration at which inhibition is half-maximal.
